Our source for the solubility values is the OPERA property sets (Mansouri et al. 2018).

Molecules are shown by their SMILES. ≈ marks a conversion by molar mass, not a printed value.

Settings in one data set: not given
As usually defined, the solubility is the dissolved amount per volume that the medium holds. A low value points to a poorly soluble substance. In turn, `O=C(O)c1cc(=O)nc(-c2ccccc2)[nH]1` came in with a solubility of 6.15 mM (≈ 1330 µg/mL).

In turn, `C1COC2(C1)CCCO2` yielded a solubility of 780 mM (≈ 100000 µg/mL).

Take `O=C(OC1CCNCC1)c1ccccc1`: the solubility came to 48.7 mM (≈ 10000 µg/mL).

Molecule `CCCCOCCOC(N)=O` displayed a solubility of 310 mM (≈ 50000 µg/mL).

The molecule `O=C(O)C(=O)C(c1ccccc1)c1ccccc1` had a solubility of 4.62 mM (≈ 1110 µg/mL).

In the case of `CN1C(=O)C(N)C(=S)N(C)C1=O` (stereo not given), the solubility is 76.4 mM (≈ 14300 µg/mL).

`NCCc1ccc(O)c([N+](=O)[O-])c1` showed a solubility of 45.7 mM (≈ 8330 µg/mL).

`O=C(O)CC1(CC(=O)O)OCOC1=O` showed a solubility of 245 mM (≈ 50000 µg/mL).

Regarding `CN(C)C1CCC=CCCC1` (stereo not given), the solubility turned out to be 25.1 mM (≈ 3850 µg/mL).

Regarding `CCCSS(=O)CCC` (stereo not given), the solubility came to 120 mM (≈ 20000 µg/mL).

In the case of `CC(C)[C@@H]1NC(=O)CNC1=O`, the solubility amounted to 128 mM (≈ 20000 µg/mL).

For `CCC(NC(=N)N)C(=O)O` (stereo not given), the solubility worked out at 138 mM (≈ 20000 µg/mL).

For `CCSS(=O)(=O)CC`, the solubility was found to be 77.8 mM (≈ 12000 µg/mL).

`COC(/C=C/C(OC)OC)OC` showed a solubility of 1140 mM (≈ 200000 µg/mL).

Molecule `NC(=O)C[C@H](NC(=O)CCl)C(=O)O` yielded a solubility of 479 mM (≈ 100000 µg/mL).

For the molecule `NC(=O)C=Cc1ccccc1[N+](=O)[O-]`, the solubility worked out at 52 mM (≈ 10000 µg/mL).

Molecule `Oc1ccc(Sc2ccccc2)cc1` returned a solubility of 1.68 mM (≈ 340 µg/mL).

Regarding `CC1=CCCN1C`, the solubility came to 1340 mM (≈ 130000 µg/mL).

In the case of `CCC(Cl)(CC)C(N)=O`, the solubility was 93.6 mM (≈ 14000 µg/mL).

With `CCCCCc1ccc(O)cc1O`, the solubility turned out to be 11.1 mM (≈ 2000 µg/mL).

`CC(C)C1OCCO1` registered a solubility of 861 mM (≈ 100000 µg/mL).

On to `CC(C)C(Br)C(=O)N[C@@H](C)C(=O)O` (mixture of isomers), for which the solubility turned out to be 329 mM (≈ 83000 µg/mL).

Turning to `O=C(O)C1(O)CCCCC1`, the solubility is 465 mM (≈ 67000 µg/mL).

Take `CCCCOC(=O)CCOC`: the solubility came to 61.2 mM (≈ 9800 µg/mL).

`COC1CCCC(C)O1` (stereo not given): the solubility amounted to 256 mM (≈ 33300 µg/mL).

`Cn1c(C(N)=O)c(C(N)=O)c2ccccc21` had a solubility of 15.2 mM (≈ 3300 µg/mL).

As for `COCCCCC=O`, the solubility was 2870 mM (≈ 333000 µg/mL).

`CCOc1ccc(NC(=O)CO)cc1` showed a solubility of 7.84 mM (≈ 1530 µg/mL).

Molecule `CC(=O)C(=Cc1ccccc1)CC(=O)O` showed a solubility of 24.5 mM (≈ 5000 µg/mL).

`O=P(O)(O)c1cccc2ccccc12` displayed a solubility of 24 mM (≈ 5000 µg/mL).

Consider `COCC(=O)c1ccccc1`, for which the solubility amounted to 173 mM (≈ 26000 µg/mL).

Molecule `Cc1nc2c(c(=O)[nH]c(=O)n2C)n1C` came in with a solubility of 286 mM (≈ 55600 µg/mL).

The same data set, now with this note: 20 °C.
`Clc1cnc2ncncc2n1`: the solubility is 75 mM (≈ 12500 µg/mL).

The molecule `CC(NC(N)=O)C(=O)O` (stereo not given) displayed a solubility of 133 mM (≈ 17600 µg/mL).

As to `CCOC(=O)C(C)=CC(=O)[O-]`, the solubility came out at 94.2 mM.

Molecule `NC(=O)C(N)C(O)C(=O)O` (stereo not given) had a solubility of 70.9 mM (≈ 10500 µg/mL).

`CC(=O)C(=O)c1ccccc1` had a solubility of 17.5 mM (≈ 2600 µg/mL).

Regarding `OCc1c(Cl)c(Cl)c(Cl)c(Cl)c1Cl`, the solubility is 0.00713 mM (≈ 2 µg/mL).

`CCOC(=O)c1[nH]c(C=O)c(CC)c1C` yielded a solubility of 1.91 mM (≈ 400 µg/mL).

In the case of `Cc1csc(=S)n1CC(=O)O`, the solubility was 10.9 mM (≈ 2060 µg/mL).

In turn, `Cc1ccc(OCC(=O)O)cc1` gave a solubility of 7.22 mM (≈ 1200 µg/mL).

As to `CC(C)C(CC(=O)O)C(=O)O` (stereo not given), the solubility was determined as 391 mM (≈ 62700 µg/mL).

`NC(=O)C(Br)(Br)Br`: the solubility worked out at 54.1 mM (≈ 16000 µg/mL).

`CN1c2ccccc2Sc2ccccc21` displayed a solubility of 0.00255 mM (≈ 0.544 µg/mL).

`CC(=O)Nc1ccc(Br)cc1C` displayed a solubility of 17.5 mM (≈ 4000 µg/mL).

In turn, `CC(C)(O)CC(C)(O)c1cccc2ccccc12` (stereo not given) showed a solubility of 0.573 mM (≈ 140 µg/mL).

`O=C(O)C=C(Br)Br` yielded a solubility of 146 mM (≈ 33500 µg/mL).

Molecule `CCOCC(N)C(=O)O` (stereo not given) registered a solubility of 3340 mM (≈ 445000 µg/mL).

Consider `Ic1ccc2c(c1)Sc1ccccc1N2`, for which the solubility is 0.000118 mM (≈ 0.0384 µg/mL).

In the case of `OCc1ccc(Cl)cc1`, the solubility came out at 17.5 mM (≈ 2500 µg/mL).

The molecule `O=C(O)CCCP(=O)(O)O` displayed a solubility of 3170 mM (≈ 533000 µg/mL).

For the molecule `O=C(OCCO)c1ccccc1O`, the solubility came out at 69.7 mM (≈ 12700 µg/mL).

On to `CC(=O)Nc1ccc(/C=N/NC(N)=S)cc1`, for which the solubility was 0.372 mM (≈ 88 µg/mL).

Molecule `O=C(O)C1=CCCCC1` gave a solubility of 55.5 mM (≈ 7000 µg/mL).

On to `CN[C@@H](Cc1ccc(O)cc1)C(=O)O`, for which the solubility came out at 7.37 mM (≈ 1440 µg/mL).

Regarding `Cn1c(=O)ncc2nccnc21`, the solubility was found to be 42.5 mM (≈ 6900 µg/mL).

Turning to `Oc1ccc2c(c1)Sc1ccccc1N2`, the solubility stood at 2.66 mM (≈ 573 µg/mL).

Turning to `Cc1ccc2[nH]c(=O)c(=O)[nH]c2c1`, the solubility was found to be 0.908 mM (≈ 160 µg/mL).

Molecule `CCCCC(CCC(=O)O)CC(=O)O` (stereo not given) displayed a solubility of 40 mM (≈ 8100 µg/mL).

For the molecule `O=C(O)CCCC(C(=O)O)(c1ccccc1)c1ccccc1`, the solubility was 0.67 mM (≈ 200 µg/mL).

For the molecule `O=C(O)C(Br)=C(Br)Br`, the solubility is 43.7 mM (≈ 13500 µg/mL).

The molecule `Oc1cccc2ccnnc12` returned a solubility of 3.9 mM (≈ 570 µg/mL).

As to `CC(C)=NNC(N)=O`, the solubility was 540 mM (≈ 62200 µg/mL).

Regarding `COC(=O)c1cc(O)c(OC)c(O)c1`, the solubility was 25.2 mM (≈ 5000 µg/mL).

Molecule `CCC(C)(O)C(O)c1ccccc1` (stereo not given) had a solubility of 18.9 mM (≈ 3400 µg/mL).

Turning to `CC(=O)Nc1ccc(S(=O)(=O)Nc2ccccn2)cc1`, the solubility was determined as 0.192 mM (≈ 56 µg/mL).

In turn, `S=c1nc[nH]c2nccnc12` gave a solubility of 2.25 mM (≈ 370 µg/mL).

Take `NC(=S)Nc1cccc([N+](=O)[O-])c1`: the solubility is 35.5 mM (≈ 7000 µg/mL).

In turn, `O=[N+]([O-])c1ccc(CO)cc1` came in with a solubility of 13.1 mM (≈ 2000 µg/mL).

`CCOC(=O)c1c(C)oc(C)c(C(=O)OCC)c1=O` gave a solubility of 29.8 mM (≈ 8000 µg/mL).
